Data from ChEMBL document CHEMBL5034019, “Discovery of the Next-Generation Pan-TRK Kinase Inhibitors for the Treatment of Cancer” (J Med Chem, 2021).
Each block holds one compound with its values, some of them ahead of it. The source made the active and inactive calls. No cut-off for these calls is given here.

Tests used:
KM12 = experiment: Antiproliferative activity against TrK fused human KM12 cells; assay type: functional, cell-based
[1] = Clearance in Sprague-Dawley rat at 3 mg/kg measured up to 24 hrs by LC/MS/MS analysis; assay type: ADME, organism-based; details: in vivo
[2] = Toxicity in […] xenografted with mouse BaF3 cells transfected with ETV6-NTRK3-G623R mutant assessed as death at 100 mg/kg, po administered once daily for 21 days and measured twice weekly; assay type: organism-based; details: in vivo, 504 h, time 21 day
[3] = Toxicity in mouse xenografted with mouse BaF3 cells transfected with LMNA-NTRK1 assessed as death at 100 mg/kg, po administered once daily for 21 days and measured twice weekly; details: in vivo, 504 h
[4] = Toxicity in mouse xenografted with mouse BaF3 cells transfected with LMNA-NTRK1 assessed as weight loss at 100 mg/kg, po administered once daily for 21 days and measured twice weekly; details: in vivo, 504 h
[5] = Toxicity in mouse xenografted with mouse BaF3 cells transfected with ETV6-NTRK3 assessed as weight loss at 100 mg/kg, po administered once daily for 21 days and measured twice weekly; details: in vivo, 504 h
[6] = Toxicity in mouse xenografted with mouse BaF3 cells transfected with LMNA-NTRK1 assessed as unkempt appearance at 100 mg/kg, po administered once daily for 21 days and measured twice weekly; details: in vivo, 504 h
[7] = Toxicity in mouse xenografted with mouse BaF3 cells transfected with ETV6-NTRK3-G623R mutant assessed as weight loss at 100 mg/kg, po administered once daily for 21 days and measured twice weekly; details: in vivo, 504 h
BaF3 [8] = experiment: Antitumor activity against mouse BaF3 cells transfected with LMNA-NTRK1 xenografted in mouse assessed as tumor growth inhibition at 100 mg/kg, po administered once daily for 21 days and measured twice weekly; details: time 21.0 day
BaF3 [9] = experiment: Antitumor activity against mouse BaF3 cells transfected with ETV6-NTRK3-G623R mutant xenografted in mouse assessed as tumor growth inhibition at 100 mg/kg, po administered once daily for 21 days and measured twice weekly; details: time 21.0 day
[10] = system: Mast/stem cell growth factor receptor Kit (Homo sapiens), P10721 [D816H]; experiment: Inhibition of recombinant human C-Kit D816H mutant (544 to end residues) assessed as residual activity at 0.5 uM poly(Glu, Tyr) 4:1 as substrate incubated 40 mins in presence of [gamma-33ATP] by scintillation counting based radiometry assay relative to control
[11] = system: Mast/stem cell growth factor receptor Kit (Homo sapiens), P10721 [V654A]; experiment: Inhibition of recombinant human C-Kit V654A mutant (544 to end residues) assessed as residual activity at 0.5 uM poly(Glu, Tyr) 4:1 as substrate incubated 40 mins in presence of [gamma-33ATP] by scintillation counting based radiometry assay relative to control
[12] = system: Epidermal growth factor receptor (Homo sapiens), P00533 [T790M]; experiment: Inhibition of recombinant human EGFR T790M mutant (696 to end residues) assessed as residual activity at 0.5 uM using poly(Glu, Tyr) 4:1 as substrate at 40 mins in presence of [gamma-33ATP] by scintillation counting based radiometry assay relative to control
[13] = molecular target: Hepatocyte growth factor receptor (Homo sapiens) (UniProt P08581); experiment: Inhibition of recombinant human MET (974 to end residues) assessed as residual activity at 0.5 uM using KKKGQEEEYVFIE as substrate incubated for 40 mins in presence of [gamma-33ATP by scintillation counting based radiometry assay relative to control
[14] = system: Hepatocyte growth factor receptor (Homo sapiens), P08581 [Y1248H]; experiment: Inhibition of recombinant human Met Y1248H mutant (974 to end residues) assessed as residual activity at 0.5 uM using KKKGQEEEYVFIE as substrate incubated for 40 mins in presence of [gamma-33P]-ATP by scintillation counting method relative to control
[15] = molecular target: Receptor-interacting serine/threonine-protein kinase 1 (Homo sapiens) (UniProt Q13546); experiment: Inhibition of recombinant human RIPK1 (8 to 322 residues) assessed as residual activity at 0.5 uM using myelin basic protein as substrate incubated for 40 mins in presence of [gamma33P]ATP by scintillation counting based radiometry assay relative to control
[16] = molecular target: Proto-oncogene tyrosine-protein kinase Src (Homo sapiens) (UniProt P12931); experiment: Inhibition of human Src (1 to 530 residues) assessed as residual activity at 0.5 uM using GGEEEEYFELVKKKK as substrate measured after 40 mins in presence of [gamma33P]ATP by scintillation counting method relative to control
[17] = C0 in female Sprague-Dawley rat at 2 mg/kg, iv measured up to 24 hrs by LC/MS/MS analysis; assay type: ADME, organism-based; details: in vivo
[18] = Clearance in male Sprague-Dawley rat at 2 mg/kg, iv measured up to 24 hrs by LC/MS/MS analysis; assay type: ADME, organism-based; details: in vivo
[19] = Clearance in female Sprague-Dawley rat at 2 mg/kg, iv measured up to 24 hrs by LC/MS/MS analysis; assay type: ADME, organism-based; details: in vivo
[20] = AUC (0 to t) in male Sprague-Dawley rat at 2 mg/kg, iv measured up to 24 hrs by LC-MS/MS analysis; assay type: ADME, organism-based; set-up: route intravenous, dose 2 mg/kg, time <=24; details: in vivo
[21] = AUC (0 to t) in female Sprague-Dawley rat at 2 mg/kg, iv measured up to 24 hrs by LC-MS/MS analysis; assay type: ADME, organism-based; set-up: route intravenous, dose 2 mg/kg, time <=24; details: in vivo
[22] = Tmax in female Sprague-Dawley rat at 10 mg/kg, po measured up to 24 hrs by LC-MS analysis; assay type: ADME, organism-based; details: in vivo
[23] = Toxicity in […] xenografted with mouse BaF3 cells transfected with LMNA-NTRK1 assessed as weight loss at 20 mg/kg, po administered once daily for 21 days and measured twice weekly; assay type: organism-based; details: in vivo, 504 h, time 21 day
[24] = molecular target: High affinity nerve growth factor receptor (Homo sapiens, UniProt P04629, G595R)
[25] = molecular target: NT-3 growth factor receptor (Homo sapiens, UniProt Q16288)
Description: Inhibition of TrKC (unknown origin) incubated for 120 mins in presence of 33P-ATP

BaF3 [26] = experiment: Antitumor activity against mouse BaF3 cells transfected with ETV6-NTRK3 xenografted in mouse assessed as tumor growth inhibition at 5 to 20 mg/kg, po administered once daily for 21 days and measured twice weekly; details: dose 5-20 mg/kg, time 21.0 day
BaF3 [27] = experiment: Antitumor activity against mouse BaF3 cells transfected with ETV6-NTRK3-G623R mutant xenografted in mouse assessed as tumor growth inhibition at 5 to 20 mg/kg, po administered once daily for 21 days and measured twice weekly; details: dose 5-20 mg/kg, time 21.0 day

Sequence of Mast/stem cell growth factor receptor Kit (Homo sapiens), P10721 [D816H] (P10721 whole entry D816H): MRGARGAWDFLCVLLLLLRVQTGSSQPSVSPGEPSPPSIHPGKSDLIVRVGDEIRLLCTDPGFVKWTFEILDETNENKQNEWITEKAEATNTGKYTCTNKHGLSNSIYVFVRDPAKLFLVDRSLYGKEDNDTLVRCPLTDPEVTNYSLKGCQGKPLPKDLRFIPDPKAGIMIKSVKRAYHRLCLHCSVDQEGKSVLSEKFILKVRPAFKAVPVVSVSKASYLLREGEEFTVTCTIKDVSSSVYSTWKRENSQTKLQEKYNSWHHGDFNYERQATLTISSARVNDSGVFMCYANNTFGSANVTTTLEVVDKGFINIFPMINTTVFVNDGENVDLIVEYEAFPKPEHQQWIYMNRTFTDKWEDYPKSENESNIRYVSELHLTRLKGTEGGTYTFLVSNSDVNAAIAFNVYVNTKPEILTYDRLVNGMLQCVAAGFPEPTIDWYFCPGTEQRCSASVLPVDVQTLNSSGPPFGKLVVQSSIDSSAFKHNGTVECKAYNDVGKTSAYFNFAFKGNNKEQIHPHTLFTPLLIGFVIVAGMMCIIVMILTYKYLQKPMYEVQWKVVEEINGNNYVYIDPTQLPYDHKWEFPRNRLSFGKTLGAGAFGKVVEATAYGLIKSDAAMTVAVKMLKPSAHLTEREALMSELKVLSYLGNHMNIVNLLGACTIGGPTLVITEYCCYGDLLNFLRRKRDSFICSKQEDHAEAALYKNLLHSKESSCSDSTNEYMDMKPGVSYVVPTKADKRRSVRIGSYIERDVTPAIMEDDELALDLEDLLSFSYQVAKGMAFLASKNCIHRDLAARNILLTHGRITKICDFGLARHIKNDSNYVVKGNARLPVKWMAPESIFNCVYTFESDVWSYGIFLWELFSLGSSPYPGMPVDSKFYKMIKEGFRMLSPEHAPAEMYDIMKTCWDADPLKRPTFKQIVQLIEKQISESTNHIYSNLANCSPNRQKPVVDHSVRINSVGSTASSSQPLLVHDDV
Sequence of Receptor-interacting serine/threonine-protein kinase 1 (Homo sapiens) (Q13546 whole entry, the tested form may be a part): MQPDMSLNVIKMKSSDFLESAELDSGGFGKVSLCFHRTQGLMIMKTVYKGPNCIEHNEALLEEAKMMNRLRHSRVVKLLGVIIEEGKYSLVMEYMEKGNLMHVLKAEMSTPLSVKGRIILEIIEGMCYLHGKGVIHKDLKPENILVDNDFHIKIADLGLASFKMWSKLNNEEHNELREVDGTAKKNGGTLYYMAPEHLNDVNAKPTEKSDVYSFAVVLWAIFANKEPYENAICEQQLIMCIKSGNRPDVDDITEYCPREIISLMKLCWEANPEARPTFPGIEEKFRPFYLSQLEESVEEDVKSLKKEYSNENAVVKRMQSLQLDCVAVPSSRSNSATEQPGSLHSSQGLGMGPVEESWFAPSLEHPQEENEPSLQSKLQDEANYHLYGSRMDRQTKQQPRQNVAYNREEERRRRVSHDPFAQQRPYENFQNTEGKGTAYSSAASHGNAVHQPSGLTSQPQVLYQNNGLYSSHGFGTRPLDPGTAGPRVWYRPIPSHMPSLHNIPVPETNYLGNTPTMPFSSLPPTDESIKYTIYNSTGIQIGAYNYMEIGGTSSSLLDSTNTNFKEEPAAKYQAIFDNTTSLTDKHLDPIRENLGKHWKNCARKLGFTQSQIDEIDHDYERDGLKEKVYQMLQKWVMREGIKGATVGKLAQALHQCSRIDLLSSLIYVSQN
Sequence of High affinity nerve growth factor receptor (P04629 33-796 G595R limits assumed): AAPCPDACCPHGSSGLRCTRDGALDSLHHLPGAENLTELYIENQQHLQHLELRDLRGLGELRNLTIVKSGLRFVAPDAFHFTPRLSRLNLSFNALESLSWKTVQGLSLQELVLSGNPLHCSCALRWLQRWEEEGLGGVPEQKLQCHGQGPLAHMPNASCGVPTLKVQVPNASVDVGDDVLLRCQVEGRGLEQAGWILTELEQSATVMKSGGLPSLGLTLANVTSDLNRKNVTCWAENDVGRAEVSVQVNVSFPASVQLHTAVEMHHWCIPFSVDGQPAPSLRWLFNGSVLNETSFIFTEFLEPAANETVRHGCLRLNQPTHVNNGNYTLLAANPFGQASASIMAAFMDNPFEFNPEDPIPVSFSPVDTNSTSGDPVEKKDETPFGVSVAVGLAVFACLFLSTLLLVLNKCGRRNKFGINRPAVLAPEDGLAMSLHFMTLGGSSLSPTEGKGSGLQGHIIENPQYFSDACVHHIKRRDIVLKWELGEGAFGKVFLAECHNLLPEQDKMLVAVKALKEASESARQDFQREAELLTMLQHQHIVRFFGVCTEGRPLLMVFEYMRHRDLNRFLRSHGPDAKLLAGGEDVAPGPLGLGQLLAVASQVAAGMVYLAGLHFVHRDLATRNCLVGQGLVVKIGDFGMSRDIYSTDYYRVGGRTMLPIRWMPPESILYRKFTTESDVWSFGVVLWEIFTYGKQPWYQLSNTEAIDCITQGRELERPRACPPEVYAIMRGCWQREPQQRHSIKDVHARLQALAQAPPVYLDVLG
Sequence of Mast/stem cell growth factor receptor Kit (Homo sapiens), P10721 [V654A] (P10721 whole entry V654A): as the sequence (P10721 whole entry D816H) above, with V654A, H816D counted along it
Sequence of NT-3 growth factor receptor (Q16288 whole entry): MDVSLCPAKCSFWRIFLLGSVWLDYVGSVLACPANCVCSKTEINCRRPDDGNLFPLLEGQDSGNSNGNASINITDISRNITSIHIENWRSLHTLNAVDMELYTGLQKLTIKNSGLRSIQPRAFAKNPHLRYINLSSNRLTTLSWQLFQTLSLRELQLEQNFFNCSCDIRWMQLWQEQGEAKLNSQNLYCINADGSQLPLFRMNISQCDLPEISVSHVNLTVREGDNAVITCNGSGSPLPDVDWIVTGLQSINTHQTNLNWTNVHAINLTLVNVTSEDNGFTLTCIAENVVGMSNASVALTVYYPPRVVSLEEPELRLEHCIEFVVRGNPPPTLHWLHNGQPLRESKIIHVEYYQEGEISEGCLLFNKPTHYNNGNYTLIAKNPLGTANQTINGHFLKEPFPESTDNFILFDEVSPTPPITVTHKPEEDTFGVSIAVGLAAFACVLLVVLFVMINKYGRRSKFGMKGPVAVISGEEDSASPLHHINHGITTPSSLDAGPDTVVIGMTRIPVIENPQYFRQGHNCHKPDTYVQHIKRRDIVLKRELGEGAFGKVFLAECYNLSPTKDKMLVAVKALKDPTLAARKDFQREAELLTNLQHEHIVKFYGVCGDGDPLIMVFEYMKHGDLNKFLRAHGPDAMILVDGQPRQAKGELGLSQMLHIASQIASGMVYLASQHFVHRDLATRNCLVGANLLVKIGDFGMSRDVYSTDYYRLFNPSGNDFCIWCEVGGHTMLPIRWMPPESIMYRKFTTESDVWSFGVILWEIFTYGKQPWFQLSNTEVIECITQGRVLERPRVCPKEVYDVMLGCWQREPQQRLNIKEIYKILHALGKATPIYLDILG
Sequence of Proto-oncogene tyrosine-protein kinase Src (Homo sapiens) (P12931 2-536 limits assumed): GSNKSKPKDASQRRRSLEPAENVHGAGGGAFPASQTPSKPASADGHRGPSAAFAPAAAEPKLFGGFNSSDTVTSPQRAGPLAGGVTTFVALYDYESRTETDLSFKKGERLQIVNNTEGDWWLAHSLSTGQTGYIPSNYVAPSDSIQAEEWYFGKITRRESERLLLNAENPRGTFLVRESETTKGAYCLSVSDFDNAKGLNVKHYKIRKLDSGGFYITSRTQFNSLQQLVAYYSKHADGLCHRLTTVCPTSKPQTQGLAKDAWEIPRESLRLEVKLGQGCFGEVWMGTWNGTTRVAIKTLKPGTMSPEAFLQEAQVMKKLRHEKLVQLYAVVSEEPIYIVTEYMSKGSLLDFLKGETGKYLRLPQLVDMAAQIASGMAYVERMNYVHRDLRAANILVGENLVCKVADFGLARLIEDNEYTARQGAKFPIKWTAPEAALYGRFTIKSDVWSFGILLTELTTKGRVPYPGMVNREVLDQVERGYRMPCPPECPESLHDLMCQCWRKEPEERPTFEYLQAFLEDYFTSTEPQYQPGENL

SMILES: C[C@@H]1CCc2ncc(F)cc2[C@H]2CCCN2c2ccn3ncc(c3n2)C(=O)N1 [SELITRECTINIB]
- IC50 (KM12): ≤ 5 nM
- clearance [1]: 11.8 mL/min/kg
- Activity [2]: Toxic
- Activity [3]: Toxic
- Activity [4]: Toxic
- Activity [5]: Toxic
- Activity [6]: Toxic
- Activity [7]: Toxic
- Activity (BaF3 [8]): Active
- Activity (BaF3 [9]): Active

- Activity [10]: 96%
- Activity [11]: 105%
- Activity [12]: 105%
- Activity [13]: 98%
- Activity [14]: 89%
- Activity [15]: 102%
- Activity [16]: 33%
- C0 at 24 h [17]: 3.51 µM
- clearance [18]: 19.3 mL/min/kg
- clearance [19]: 8.19 mL/min/kg
- AUC(0-t) at 24 h [20]: 4.19 µM·h
- AUC(0-t) at 24 h [21]: 10.3 µM·h
- Tmax [22]: 40 min
- IC50 [24]: 3.5 nM
- IC50 [25]: 0.2 nM
SMILES: O=C1NC2(CC2)COc2ncc(F)cc2[C@H]2COCCN2c2ccn3ncc1c3n2
- Activity [23]: Toxic
- Activity (BaF3 [26]): Active
- Activity (BaF3 [27]): Active
